According to patent US8455440B2, “Combination anticoagulant therapy with a compound that acts as a factor Xa inhibitor” (Millennium Pharmaceuticals, Inc., priority 2007, dated 2013):

How the values were obtained:
[1] = test system: clotting times (prothrombin time, PT and activated partial thromboplastin times, aPTT); experiment: Ex vivo clotting times (PT, aPTT) in the rat thrombosis model
Protocol: (§1) In this experiment, the ability of Compound A to maintain vessel patency under arterial flow conditions in ferric chloride induced thrombosis in rat carotid artery is compared to that achieved by clopidogrel. Compound A was administered by intravenous infusions and clopidogrel was dosed orally for three days. Ex vivo platelet aggregation induced by 10 μM ADP and clotting times (prothrombin time, PT and activated partial thromboplastin times, aPTT) were measured over the experimental time course (90 min) in all animals.
as §1, with “The combination effect of an anticoagulant and anti-platelet agent, aspirin, was investigated in an in vivo model of thrombosis. […] In” for “In”, “aspirin.” for “clopidogrel.”, “aspirin” for “clopidogrel”, “administered as an intravenous bolus approximately 30 min prior to the start of the experiment.” for “dosed orally for three days.”, “μg/mL of collagen” for “μM ADP”

[2] = test system: systolic and diastolic blood pressure; experiment: Telemetry blood pressure in conscious beagle dogs, three way crossover; type: in vivo
Protocol: The study design was a three way crossover with one week between doses to ensure complete elimination of residual agents from the dogs' circulatory system. […] Data acquisition and analysis was performed using LDS Life Science Suite Ponemah P3 plus V 4.20 software with results reported as 10 minute averages for each animal.
AUC was derived from the systolic and diastolic baseline. […] Negative values represent a decrease in blood pressure relative to the baseline value.

[3] = test system: thrombin generation; experiment: Thrombin generation inhibition assay; type: biochemical, human
Protocol: After 10 min, the reaction was stopped by addition of EGTA. A chromogenic peptide substrate (Spectrozyme TH, American Diagnostica) specific for thrombin was added to measure the activity of thrombin generated during the tissue factor treatment period. After allowing the substrate cleavage reaction to proceed for 2 min, the samples were quenched with glacial acetic acid. The plasma samples were analyzed in triplicate in a 96-well plate format. […] The control samples were used to establish plate acceptance criteria. Absorbance of each sample well was measured at 405 nm.
Thrombin generation (% Inhibition) was calculated from absorbance at 405 nm (A405) by the following equation: %Inhibition=(1−A405/Baseline)×100.
Since thrombin generation inhibition values were reported as a percentage there is no lower limit of quantitation in this assay.

[4] = Plasma concentrations of Compound A in telemeterized dogs; type: in vivo; details: combination with verapamil
Source text: It is further contemplated that in patients being treated for atrial fibrillation, blood pressure lowering drugs such as beta blockers or calcium channel blockers and Compound A may be used concomitantly. Drugs like verapamil are known inhibitors of p-glycoprotein function. […] See Example 10.
The study was designed to evaluate the in vivo effect of Compound A upon co-administration with a selective L type calcium channel blocker, verapamil. Three beagle dogs were implanted with Data Science Telemetry transmitters (DSI model # TL11M2-D70-PCT) to measure conscious (un-anaesthetized) and unrestrained systolic and diastolic blood pressure following oral dosing with Compound A, verapamil or a combination of the two. The study design was a three way crossover with one week between doses to ensure complete elimination of residual agents from the dogs' circulatory system. Data was analyzed for a twelve hour period, starting with one hour pre-oral dosing of Compound A and ending with eleven hours post-dosing. Data acquisition and analysis was performed using LDS Life Science Suite Ponemah P3 plus V 4.20 software with results reported as 10 minute averages for each animal.

[5] = target: p-glycoprotein (Homo sapiens, UniProt P08183); experiment: In vitro evaluations of p-glycoprotein substrate; type: in vitro ADME
[6] = target: T1, factor Xa (Bos taurus, UniProt P00743); experiment: Anti-factor Xa unit assay; type: biochemical, human; details: total knee replacement patients, 15 mg or 40 mg oral twice a day
T1 construct: purchased Diapharma COATEST LMW Heparin
Protocol: The anti-factor Xa (anti-fXa) assay was adapted from a commercial kit (Diapharma COATEST LMW Heparin) and modified to a 96-well format. A low molecular weight heparin, dalteparin, included in the kit was used to construct a standard curve according to the manufacture's instruction using pooled platelets poor plasma. All samples and standards were assayed in duplicate. The limit of quantitation was 0.05 U/mL and results below 0.05 U/mL were reported as below the limit of quantitation. The upper limit of measurement for the plate assay was 1.0 U/mL and samples with anti-factor Xa units higher than 1.0 U/mL were re-assayed after dilution. The coefficient of variation (CV) for both standards and clinical samples were 10%.

[7] = test system: Interleukin 6; experiment: Ex vivo cytokine release in human whole blood: interleukin 6; type: cell-based; details: for fold change of Interleukin 6 release: combination with Aspirin (0 nM = 1)
Protocol: An ex vivo assay system of human cytokine release was used to test whether inhibition of factor Xa should augment the effect of reduction of inflammation elicited by standard anti-inflammatory drugs, such as aspirin.
Following addition of Compound A (50 to 500 nM) to the blood samples, control and treated samples were activated by addition of collagen (Chronolog, 4 μg/mL) and gently rotated at 37° C. for 45 min. At the end of the activation period, blood samples were centrifuged at 13,000 rpm (15,000 g) for 5 min in an Eppendorf 5415G centrifuge. Plasma was removed, treated with protease inhibitor cocktail (Roche) and stored frozen at −80° C. Cytokines released from the blood cells were quantitated in a Multiplexed Biomarker Immunoassay for Luminex Instrumentation (Millipore USA). […] For example, in the plasma samples from six donors, the mean amount of interleukin 4 was 28.4 pg/mL in the untreated control and 26.8 to 29.4 pg/mL in the Compound A treated samples. […] Thus in this ex vivo system Compound A was capable of providing additional beneficial effect over a widely used anti-inflammatory agent.

[8] = test system: Interleukin 8; experiment: Ex vivo cytokine release in human whole blood: interleukin 8; type: cell-based
[9] = Compound A 0.03 μM, aspirin 3 mg/kg, or both
[10] = Dog # 1, oral, Compound A 3 mg/kg, verapamil 10 mg/kg
[11] = Dog # 2, oral, Compound A 3 mg/kg, verapamil 10 mg/kg
[12] = Dog # 3, oral, Compound A 3 mg/kg, verapamil 10 mg/kg
[13] = three dogs, oral, Compound A 3 mg/kg, verapamil 10 mg/kg
[14] = Compound A added to blood samples from donors under aspirin therapy
[15] = addition of Compound A to whole blood of aspirin treated donors prior to collagen activation

p-glycoprotein, sequence (P08183 whole entry): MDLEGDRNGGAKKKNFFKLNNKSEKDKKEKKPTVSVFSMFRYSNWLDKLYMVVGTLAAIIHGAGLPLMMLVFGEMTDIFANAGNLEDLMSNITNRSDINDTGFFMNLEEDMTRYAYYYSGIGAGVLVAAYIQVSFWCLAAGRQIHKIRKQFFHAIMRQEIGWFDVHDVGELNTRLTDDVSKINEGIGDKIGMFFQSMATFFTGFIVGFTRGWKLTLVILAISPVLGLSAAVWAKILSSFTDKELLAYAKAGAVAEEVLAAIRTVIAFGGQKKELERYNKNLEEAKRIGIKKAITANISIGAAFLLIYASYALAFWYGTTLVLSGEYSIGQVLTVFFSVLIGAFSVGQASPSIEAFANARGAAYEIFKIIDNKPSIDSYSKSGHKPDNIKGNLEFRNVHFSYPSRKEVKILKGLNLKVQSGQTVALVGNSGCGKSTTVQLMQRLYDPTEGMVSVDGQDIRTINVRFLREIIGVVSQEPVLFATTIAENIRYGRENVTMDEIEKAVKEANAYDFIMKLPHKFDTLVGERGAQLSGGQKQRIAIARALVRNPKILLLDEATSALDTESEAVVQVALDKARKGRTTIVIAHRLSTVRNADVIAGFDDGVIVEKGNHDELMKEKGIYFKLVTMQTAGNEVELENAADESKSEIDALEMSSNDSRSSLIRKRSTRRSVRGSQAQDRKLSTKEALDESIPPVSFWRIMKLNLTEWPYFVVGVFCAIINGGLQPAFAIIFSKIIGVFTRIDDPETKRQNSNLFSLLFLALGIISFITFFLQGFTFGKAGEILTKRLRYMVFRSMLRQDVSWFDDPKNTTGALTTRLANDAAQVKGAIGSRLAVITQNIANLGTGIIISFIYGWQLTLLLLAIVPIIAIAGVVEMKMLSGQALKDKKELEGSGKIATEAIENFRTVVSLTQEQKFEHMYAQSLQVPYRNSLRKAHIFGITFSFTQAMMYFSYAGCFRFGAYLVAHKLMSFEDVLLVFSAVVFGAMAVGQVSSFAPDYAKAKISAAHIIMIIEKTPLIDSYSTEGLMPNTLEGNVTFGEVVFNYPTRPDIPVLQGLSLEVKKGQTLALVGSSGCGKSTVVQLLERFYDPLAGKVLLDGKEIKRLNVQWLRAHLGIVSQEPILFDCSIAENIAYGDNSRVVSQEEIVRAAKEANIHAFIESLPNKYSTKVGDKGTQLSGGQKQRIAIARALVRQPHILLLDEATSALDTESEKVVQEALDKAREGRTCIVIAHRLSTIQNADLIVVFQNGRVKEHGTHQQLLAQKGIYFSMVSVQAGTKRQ
T1 sequence (P00743 234-492 limits assumed): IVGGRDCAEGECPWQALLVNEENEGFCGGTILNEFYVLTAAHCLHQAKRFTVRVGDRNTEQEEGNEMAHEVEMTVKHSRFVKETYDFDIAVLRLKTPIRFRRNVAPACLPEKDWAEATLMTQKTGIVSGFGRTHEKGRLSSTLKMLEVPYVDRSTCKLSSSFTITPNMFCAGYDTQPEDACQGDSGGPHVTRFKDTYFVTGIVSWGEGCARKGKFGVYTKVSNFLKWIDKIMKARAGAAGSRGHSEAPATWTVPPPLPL
T1 sequence (P00743 41-180 partner limits assumed): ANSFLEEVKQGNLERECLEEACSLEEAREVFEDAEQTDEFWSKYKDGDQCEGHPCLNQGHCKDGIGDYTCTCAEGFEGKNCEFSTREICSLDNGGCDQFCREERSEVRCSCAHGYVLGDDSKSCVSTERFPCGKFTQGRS

Compound: COc1ccc(NC(=O)c2ccc(C(=N)N(C)C)cc2)c(C(=O)Nc2ccc(Cl)cn2)c1 [Compound A, [2-({4-[(dimethylamino)iminomethyl]phenyl}carbonylamino)-5-methoxyphenyl]-N-(5-chloro(2-pyridyl))carboxamide]
- PT ratio ([1]; 0.03 μM Compound A): 1.08
- PT ratio ([1]; 0.1 μM Compound A): 1.19
- PT ratio ([1]; 0.3 μM Compound A): 1.33
- APTT Ratio [1, 9]: 1.08
- PT ratio [1, 9]: 1.07
- change in PT ([1]; therapeutic dose of the single agent): 33%
- diastolic blood pressure (DBP) compared to pre-dose values ([2]; Compound A 3 mg/kg as a single agent, oral): no statistical differences
- Lowest Diastolic Blood Pressure Post-Dosing [2, 10]: 92.57 mmHg
- Lowest Systolic Blood Pressure Post-Dosing [2, 10]: 150.32 mmHg
- Lowest Diastolic Blood Pressure Post-Dosing [2, 11]: 83.73 mmHg
- Lowest Systolic Blood Pressure Post-Dosing [2, 11]: 121.08 mmHg
- Lowest Diastolic Blood Pressure Post-Dosing [2, 12]: 80.52 mmHg
- Lowest Systolic Blood Pressure Post-Dosing [2, 12]: 101.93 mmHg
- Mean Area Under the Curve for Systolic Pressure (AUCP), Mean ± S.D. ([2]; following verapamil or placebo administration ([…]), relative to baseline): 782.7 ± 1297.8 mmHg * min.
- measures of blood pressure upon coadministration with verapamil ([2]; telemeterized dogs): did not change the measures of blood pressure
- Lowest Diastolic Blood Pressure Post-Dosing, Mean ± S.D. [2, 13]: 85.60 ± 6.24 mmHg
- Lowest Systolic Blood Pressure Post-Dosing, Mean ± S.D. [2, 13]: 124.44 ± 24.37 mmHg
- correlation between Compound A plasma concentration and inhibition of thrombin generation ([3]; plasma of healthy volunteers, single and multiple ascending doses (FIG. 1, FIG. 2)): good correlation
- effect on inhibition of thrombin generation ([3]; total knee replacement patients, 15 mg or 40 mg oral twice a day): dose- and concentration-dependent effect
- plasma concentrations of Compound A, dual treatment versus single treatment [4]: about two times higher
- p-glycoprotein substrate [5]: substrate of p-glycoprotein
- effect on anti-factor Xa levels [6]: dose- and concentration-dependent effect
- fold change of Interleukin 6 release ([7]; 50 nM Compound A): 1.01
- fold change of Interleukin 6 release ([7]; 200 nM Compound A): 0.96
- fold change of Interleukin 6 release ([7]; 500 nM Compound A): 0.87
- reduction in the levels of released interleukin 6 [7, 14]: 25%
- further reduction of interleukin 6 [7, 15]: 16%
- reduction in the levels of released interleukin 8 [8, 14]: 44%
- further reduction of interleukin 8 [8, 15]: 18%
